Source: PubChem BioAssay (NCI)
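Each compound was tested at five concentrations against cells in 96-well plates for 48 hours. Here, GI50 denotes the concentration required for 50% inhibition of growth. TGI: concentration producing complete growth inhibition.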

What was measured:
Assay in all cases: NCI tumour cell line growth inhibition, 48 h
P388/ADR leukemia = system: P388/ADR leukemia
XF 498 CNS = system: XF 498 CNS
SNB-78 CNS = system: SNB-78 CNS
HOP-18 NSCLC = system: HOP-18 NSCLC
KM20L2 colon = system: KM20L2 colon
SN12K1 renal = system: SN12K1 renal
P388 leukemia = system: P388 leukemia
DMS 114 small cell lung = system: DMS 114 small cell lung
RXF-631 renal = system: RXF-631 renal

| Structure (SMILES) | TGI (P388/ADR leukemia) | GI50 (XF 498 CNS) | TGI (XF 498 CNS) | GI50 (SNB-78 CNS) | TGI (SNB-78 CNS) | GI50 (HOP-18 NSCLC) | TGI (HOP-18 NSCLC) | TGI (KM20L2 colon) | TGI (SN12K1 renal) | TGI (P388 leukemia) | GI50 (DMS 114 small cell lung) | TGI (RXF-631 renal) | TGI (DMS 114 small cell lung) |
| --- | --- | --- | --- | --- | --- | --- | --- | --- | --- | --- | --- | --- | --- |
| O=C(CCN1CCCCC1)C(=Cc1ccccc1)C(=O)CCN1CCCCC1 | > 72.4 µM | 5.35 µM | > 100 µM | 3.5 µM | > 100 µM | > 100 µM | > 100 µM | > 100 µM | > 100 µM | > 31.6 µM | 38.7 µM |  |  |
| C=C(C)C(=O)OC1C/C(CO)=C\C(O)C/C(C)=C/C2OC(=O)C(=C)C21 (centres undefined) |  |  | 29.3 µM |  | > 100 µM |  | 83.4 µM | 97.3 µM |  |  |  | 36.7 µM | 60.8 µM |
| CCCCC#C[I+]c1ccccc1 |  |  | 28.6 µM |  | 60.3 µM |  | 27.6 µM | 35.9 µM |  |  |  | 35.6 µM |  |
| CCC(C(=O)O)c1ccc(OC)cc1 (centres undefined) |  |  | > 100 µM |  | > 100 µM |  |  | > 100 µM |  |  |  | > 100 µM | > 100 µM |
| Cc1c(O)c(O)cc[n+]1C1OC(CO)C(O)C1O (centres undefined) |  |  |  |  | > 100 µM |  | > 100 µM | > 100 µM |  |  |  |  |  |
| O=C(NC(=O)c1ccccc1[N+](=O)[O-])Nc1ccc(Oc2ncc(Br)cn2)c(Cl)c1 |  | < 0.0251 µM |  |  |  | > 100 µM | > 100 µM | 0.059 µM |  |  | 0.00331 µM | 0.056 µM |  |
| CC(C)CCS(=O)(=O)OCCCCOS(=O)(=O)CCC(C)C |  |  |  |  | > 100 µM |  |  | > 100 µM |  |  |  |  | > 100 µM |
